The text below walks through data of patent US12358948B2, “Neurotensinergic agonists and methods of using same preventing or treating pain” (priority 2019, dated 2025).

*1 amine or outer side, *2 acyl side, *3 side chain or, on linkers, in order; H or OH if unused. Where a SMILES comes first, the peptide text is derived from it. Bridges are numbered along the chain shown (N, C = ends). [ ]: non-standard residue; d: D form. ξ: configuration not given here. ξαMeNle(6-ylidene) = CC(CCCC=[*:3])(N[*:1])C(=O)[*:2]; Phe(4-Br) = N[C@@H](Cc1ccc(Br)cc1)C(=O)O; Ala(cPent) = N[C@@H](CC1CCCC1)C(=O)O; AllylGly = C=CC[C@H](N)C(=O)O Where only a bound is given, the exact number is not on record here.

As a reminder, the IC50 is the concentration that gives 50% inhibition. Higher therefore signals weaker potency in that assay.

One experiment relates to ileum. In words: Ileum relaxation assay ex vivo. To be noted: 10^−11 to 10^−6 M, after contraction with carbachol. More on the design: species or system rat. As for the experimental part: The functional ileum bioassay was carried out as described in detail elsewhere. (Van der Poorten, O., Van Den Hauwe, R., Eiselt, E., Betti, C., Guillemyn, K., Chung, N. N., Hall, F., Bihel, F., Schiller, P. W., Tourwé, D., Sarret, P., Gendron, L, . . . Ballet, S. (2017). X-Space Screening of Dermorphin-Based Tetrapeptides through Use of Constrained Arylazepinone and Quinolinone Scaffolds. ACS medicinal chemistry letters, 8(11), 1177-1182) Briefly, rats were euthanized, and 2 cm ileum segments were dissected out before removal of extraneous fat and connective tissue.
The ileum was then mounted under 0.5-g tension in a 10 mL organ bath containing warmed (37° C.) and oxygenated (95% O2, 5% CO2) Krebs solution (6.9 g/L NaCl, 0.145 g/L MgSO4, 2.1 g/L NaHCO3, 0.35 g/L KCl, 0.165 g/L KH2PO4, 1.98 g/L dextrose and 0.28 g/L CaCl2)). […] Contractions of the muscle were recorded via an isometric force transducer (159901A, Radnoti, Monrovia, CA, USA). […]
Each concentration of the compounds tested were followed by 2×15-min washout periods in Krebs solution to allow full relaxation. Dose-response curves were obtained with NT (8-13) (10^−11 to 10^−6) as standard for each ileum and for compound 34(10^−11 to 10^−5) and IC50 values were determined. […]
Data are expressed as mean±standard errors of the mean (SEM). […]

Another experiment concerns the target T1, hNTS2 receptor (Homo sapiens, UniProt O95665).
T1 construct: membranes prepared from them
The experiment in a line: Competitive radioligand binding assay on the hNTS2 receptor. To be noted: for IC50: IC50 NTS2, displacement of 125I-[Tyr3]-NT, membranes of 1321N1 cells expressing hNTS2; for Selectivity: ratio IC50 for NTS1 : IC50 for NTS2. In outline: (§1)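 IC50 values came from one-site competition curves against ¹²⁵I-[Tyr³]-NT after 60 min at 25 °C (pH 7.5 Tris, 0.2% BSA), with analogues at 10⁻¹¹–10⁻⁴ M and nonspecific binding set by 10⁻⁵ M NT(8-13). hNTS1 used 15 µg CHO-K1 membranes with […] tracer; hNTS2 used 50 µg 1321N1 membranes with […] tracer.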

The next experiment concerns the target T2, hNTS1 receptor (Homo sapiens, UniProt P30989).
T2 construct: membranes prepared from them
In words: Competitive radioligand binding assay on the hNTS1 receptor. The note with it: IC50 NTS1, displacement of 125I-[Tyr3]-NT, membranes of CHO-K1 cells expressing hNTS1. In outline:
as §1
(In a radioligand displacement assay an active substance lowers the binding of a labelled ligand.)

The test system of a further experiment is Sprague-Dawley rats. In words: Tail-flick test (acute thermal pain), intrathecal injection. To be noted: 61 nmol/kg i.t. Format: in vivo, rat. As for the experimental part: Rats were housed two per cage on Aspen shavings in a quiet room and kept on a 12 h light/dark cycle and allowed ad libitum access to food and water. The experimental procedures in this study were approved by the Animal Care Committee of Université de Sherbrooke and were in accordance with policies and directives of the Canadian Council on Animal Care.
Tail-flick test: The tail flick test was used as outcome measures heat-induced pain in animals and as indicators of a compound's analgesic efficacy.
Acute pain was assessed using the Tail flick test (Tail Flick Analgesia meterV2.00, Colombus Instruments, Columbus, Ohio, USA). Tail flick test measures sensitivity to a high-intensity light beam focused on the rat tail. The tail flick apparatus was set at a light intensity of 6 and a cutoff of 10 seconds. The latency to flick the tail out of the path of the light beam corresponds to the measure of pain sensitivity or analgesia.
Before testing, animals were individually acclimatized to manipulations and behavioral apparatus 5 min/day for three consecutive days. On the test day, latencies baseline measures were taken before drug injection to provide a mean baseline. The compounds were diluted in 0.9% saline at the desired dose. The effects of the compound or saline on thermal nociception were assessed every 10 min for up to 60 min following i.t. administration.
Moreover, tail flick latencies were converted into the percent maximal possible effect (% MPE) at the time of maximal peak of analgesia. % MPE were calculated according to the following formula: % MPE=[(Test latency)−(Saline latency)]/[(Cutoff)−(Saline latency)]×100. Data are expressed as mean±SEM of 5-8 animals for each dose.
Then, ED50 values were determined using the dose-response stimulation log(agonist) vs response (four parameters).
Data are expressed as mean±standard errors of the mean (SEM). All graphs and statistical analysis were performed using GraphPad Prism™ 7 (GraphPad software, La Jolla, CA, USA). […] A two-way ANOVA followed by Tukey's multiple comparisons test was used to determine the significant differences in changes in body temperature between different concentrations of compounds and saline (FIG. 9). The % MPE for the tail-flick test and the areas under the curve for the formalin test were analyzed using a one-way ANOVA followed by a Dunnett's multiple comparisons test to compare different concentrations of compounds and saline treatment (FIGS. 2B, 4B, 7A-B and 8B-D). […] Nonlinear regression using three parameters was performed for % of ileum relaxation and IC50 value was obtained from the resulting dose-response curve (FIG. 11). A difference in response was considered significant with p-values *p<0.05, **p<0.01, ***p<0.001 and **p<0.0001.
On the technique in general: In hot-plate and tail-flick tests a longer latency is read as antinociception.

T1 sequence (O95665 whole entry): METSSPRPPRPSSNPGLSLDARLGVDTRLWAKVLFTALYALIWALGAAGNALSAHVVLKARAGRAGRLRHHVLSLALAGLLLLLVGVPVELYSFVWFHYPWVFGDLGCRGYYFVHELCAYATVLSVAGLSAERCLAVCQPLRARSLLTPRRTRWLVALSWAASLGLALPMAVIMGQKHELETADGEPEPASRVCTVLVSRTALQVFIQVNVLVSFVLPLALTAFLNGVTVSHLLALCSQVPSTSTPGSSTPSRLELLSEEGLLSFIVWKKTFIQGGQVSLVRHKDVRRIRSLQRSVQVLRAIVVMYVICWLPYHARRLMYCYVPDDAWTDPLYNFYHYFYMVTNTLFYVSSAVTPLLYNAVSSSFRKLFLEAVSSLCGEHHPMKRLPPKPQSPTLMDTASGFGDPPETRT
T2 sequence (P30989 whole entry): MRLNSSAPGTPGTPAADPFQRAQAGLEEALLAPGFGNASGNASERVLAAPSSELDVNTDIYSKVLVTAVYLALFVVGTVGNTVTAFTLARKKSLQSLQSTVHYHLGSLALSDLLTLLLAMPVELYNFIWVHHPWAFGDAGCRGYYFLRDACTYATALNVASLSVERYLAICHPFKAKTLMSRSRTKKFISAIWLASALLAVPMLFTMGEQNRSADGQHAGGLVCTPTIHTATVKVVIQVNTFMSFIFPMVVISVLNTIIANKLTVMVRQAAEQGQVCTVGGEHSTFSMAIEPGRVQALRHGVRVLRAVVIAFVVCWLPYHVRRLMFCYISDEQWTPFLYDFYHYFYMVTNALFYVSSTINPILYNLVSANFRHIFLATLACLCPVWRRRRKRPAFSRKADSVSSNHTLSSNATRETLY

Molecule `CC[C@H](C)[C@H](NC(=O)[C@H](Cc1ccc(O)cc1)NC(=O)[C@@H]1CCCN1C(=O)[C@H](CCCNC(=N)N)NC(=O)[C@@H](N)CCCNC(=N)N)C(=O)N[C@@H](CC(C)C)C(=O)O` [NT(8-13), Neurotensin 8-13, reference compound] had an IC50 with ileum of 3.9 nM.

As for `CC1(C(=O)N[C@@H](Cc2ccc(O)cc2)C(=O)N[C@@H](CC2CCCC2)C(=O)O)CCCC=CC[C@H](N)C(=O)N[C@@H](CCCCN)C(=O)N[C@@H](CCCCN)C(=O)N1` (stereo partly drawn) [compound 128, c[G(All)KKG((S)-alpha-Me-(4-pentenyl))]YA(cyclopentyl)] (H-[AllylGly]KK[ξαMeNle(6-ylidene)]Y[Ala(cPent)]-OH; staple 1-4), the IC50 is 7.8 nM at hNTS2 receptor and over 100000 nM on hNTS1 receptor. At hNTS2 receptor, the Selectivity is 12788. The “latency of the tail-flick reflex compared to baseline” value in the experiment with Sprague-Dawley rats was “sustainably increased latency”.

Consider `CC(C)C[C@H](NC(=O)[C@H](Cc1ccc(Br)cc1)NC(=O)[C@@H]1CC=CC[C@H](N)C(=O)N[C@@H](CCCCN)C(=O)N[C@@H](CCCCN)C(=O)N1)C(=O)O` [compound 116, c[G(All)KKG(All)]F(4-bromo)L] (H-[AllylGly]KK[AllylGly][Phe(4-Br)]L-OH; staple 1-4), for which, at hNTS2 receptor, the 50% inhibitory concentration (IC50) turned out to be 15.5 nM and the Selectivity is reported as over 6443. For the same molecule, on hNTS1 receptor, the IC50 was over 100000 nM. For the same molecule, the “latency of the tail-flick reflex compared to baseline” value in the experiment with Sprague-Dawley rats was “sustainably increased latency”.
